Measurements taken from article PMC11577813, “Eurasian spruce bark beetle detects lanierone using a highly expressed specialist odorant receptor, present in several functional sensillum types” (BMC Biology, 2024).

Target: T1, ItypOR36 (with ItypOrco) (Ips typographus, UniProt A0AAU6S471)
T1 construct: gene OR36; heteromeric OR/Orco ligand-gated ion channel; GenBank id is for ItypOR36; with Odorant receptor coreceptor
T1 sequence (A0AAU6S471 1-390): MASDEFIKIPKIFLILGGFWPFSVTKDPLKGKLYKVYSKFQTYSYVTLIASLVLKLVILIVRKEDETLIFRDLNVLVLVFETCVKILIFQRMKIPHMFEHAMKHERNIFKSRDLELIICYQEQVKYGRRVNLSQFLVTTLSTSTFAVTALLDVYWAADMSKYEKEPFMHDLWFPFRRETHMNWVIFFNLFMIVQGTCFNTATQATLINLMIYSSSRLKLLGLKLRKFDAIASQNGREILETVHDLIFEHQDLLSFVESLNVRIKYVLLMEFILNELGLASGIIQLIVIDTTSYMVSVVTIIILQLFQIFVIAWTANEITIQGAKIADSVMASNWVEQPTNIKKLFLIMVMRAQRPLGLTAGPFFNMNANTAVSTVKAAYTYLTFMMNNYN
Assay: Fluo4-AM calcium fluorescence in HEK293 cells, dose-response
Format: cell-based
Conditions: agonist; co-expressed ItypOrco; doxycycline-induced; DPBS with 1 mM probenecid, pH 7.1

CC1=CC(C)(C)C=C(O)C1=O [lanierone, 2-hydroxy-4,4,6-trimethyl-2,5-cyclohexadien-l-one]
EC50: 790 nM
